Source: ChEMBL document CHEMBL5104202, “Structure-Uptake Relationship Studies of Oxazolidinones in Gram-Negative ESKAPE Pathogens” (J Med Chem, 2022)

What was measured:
Format in all cases: functional, organism-based
Acinetobacter baumannii [1] = assay: Antibacterial activity against efflux pump lacking/recombinant OM pore producing Acinetobacter baumannii assessed as inhibition of bacterial growth
Acinetobacter baumannii [2] = assay: Antibacterial activity against efflux pump lacking Acinetobacter baumannii assessed as inhibition of bacterial growth
Acinetobacter baumannii [3] = assay: Antibacterial activity against wild type Acinetobacter baumannii assessed as inhibition of bacterial growth
Escherichia coli [4] = assay: Antibacterial activity against efflux pump lacking/recombinant OM pore producing Escherichia coli assessed as inhibition of bacterial growth
Pseudomonas aeruginosa [5] = assay: Antibacterial activity against wild type Pseudomonas aeruginosa assessed as inhibition of bacterial growth
Acinetobacter baumannii [6] = assay: Antibacterial activity against recombinant OM pore producing Acinetobacter baumannii assessed as inhibition of bacterial growth
Pseudomonas aeruginosa [7] = assay: Antibacterial activity against efflux pump lacking Pseudomonas aeruginosa assessed as inhibition of bacterial growth
Escherichia coli [8] = assay: Antibacterial activity against efflux pump lacking Escherichia coli assessed as inhibition of bacterial growth
Pseudomonas aeruginosa [9] = assay: Antibacterial activity against efflux pump lacking/recombinant OM pore producing Pseudomonas aeruginosa assessed as inhibition of bacterial growth
Pseudomonas aeruginosa [10] = assay: Antibacterial activity against recombinant OM pore producing Pseudomonas aeruginosa assessed as inhibition of bacterial growth
Escherichia coli [11] = assay: Antibacterial activity against recombinant OM pore producing Escherichia coli assessed as inhibition of bacterial growth
Escherichia coli [12] = assay: Antibacterial activity against wild type Escherichia coli assessed as inhibition of bacterial growth

Compound	IC50 (Acinetobacter baumannii [1])	IC50 (Acinetobacter baumannii [2])	IC50 (Acinetobacter baumannii [3])	IC50 (Escherichia coli [4])	IC50 (Pseudomonas aeruginosa [5])	IC50 (Acinetobacter baumannii [6])	IC50 (Pseudomonas aeruginosa [7])	IC50 (Escherichia coli [8])	IC50 (Pseudomonas aeruginosa [9])	IC50 (Pseudomonas aeruginosa [10])	IC50 (Escherichia coli [11])	IC50 (Escherichia coli [12])
CCOC(=O)C(C)(C)CC#Cc1ccc(N2C[C@H](CO)OC2=O)cc1F	30.3 µM	44 µM	> 100 µM	21.9 µM	> 100 µM	60.3 µM	> 100 µM	17.8 µM	30.1 µM	> 100 µM	65.3 µM	> 100 µM
O=C1O[C@@H](CO)CN1c1ccc(-c2ccc3c(c2)OCO3)c(F)c1	1.5 µM	2.4 µM	> 100 µM	0.3 µM	> 100 µM	> 100 µM	2.4 µM	0.3 µM	0.3 µM	> 100 µM	2.4 µM	23 µM
COC(=O)c1cncc(-c2ccc(N3C[C@H](CO)OC3=O)cc2F)c1	12.1 µM	12.1 µM	83.2 µM	2.2 µM	> 100 µM	83.2 µM	32.9 µM	2.7 µM	38.7 µM	> 100 µM	4.7 µM	> 100 µM
O=C1O[C@@H](CO)CN1c1ccc(-c2cc(F)cc(F)c2)c(F)c1	> 100 µM	> 100 µM	> 100 µM	> 100 µM	> 100 µM	> 100 µM	> 100 µM	> 100 µM	> 100 µM	> 100 µM	> 100 µM	> 100 µM
CC(C)c1ccc(-c2ccc(N3C[C@H](CO)OC3=O)cc2F)c(C(C)C)c1	8.2 µM	17.3 µM	> 100 µM	6.6 µM	> 100 µM	77.9 µM	49 µM	15.9 µM	22.3 µM	> 100 µM	20.4 µM	99.1 µM
C[n+]1ccccc1-c1ccc(-c2ccc(N3C[C@H](CO)OC3=O)cc2F)cc1	10.2 µM	20.4 µM	> 100 µM	4.4 µM	> 100 µM	13.3 µM	8.4 µM	3.1 µM	1.2 µM	15.9 µM	13.2 µM	72.6 µM
COC(=O)Cn1cc(C#Cc2ccc(N3C[C@H](CO)OC3=O)cc2F)cn1	62 µM	> 100 µM	> 100 µM	36.6 µM	> 100 µM	> 100 µM	> 100 µM	88.7 µM	> 100 µM	> 100 µM	52.3 µM	> 100 µM
O=C1O[C@@H](CO)CN1c1ccc(-c2cccc3cc[nH]c23)c(F)c1	62.1 µM	64.4 µM	> 100 µM	7.2 µM	> 100 µM	> 100 µM	> 100 µM	21.6 µM	> 100 µM	> 100 µM	19.5 µM	77 µM
O=C1O[C@@H](CO)CN1c1ccc(-c2ccc(-c3ccncc3)cc2)c(F)c1	> 100 µM	> 100 µM	> 100 µM	75.2 µM	> 100 µM	> 100 µM	92.1 µM	> 100 µM	1 µM	> 100 µM	> 100 µM	> 100 µM
C[n+]1ccccc1-c1ccc(N2C[C@H](CO)OC2=O)cc1F	33.3 µM	> 100 µM	> 100 µM	60.4 µM	> 100 µM	> 100 µM	> 100 µM	72.3 µM	40.4 µM	> 100 µM	> 100 µM	> 100 µM
Cc1nn(C)c(C)c1C#Cc1ccc(N2C[C@H](CO)OC2=O)cc1F	> 100 µM	> 100 µM	> 100 µM	3.4 µM	> 100 µM	> 100 µM	> 100 µM	86.3 µM	> 100 µM	> 100 µM	1.2 µM	> 100 µM
CC(=O)N1CCN(CC#Cc2ccc(N3C[C@H](CO)OC3=O)cc2F)CC1	> 100 µM	> 100 µM	> 100 µM	> 100 µM	> 100 µM	> 100 µM	> 100 µM	> 100 µM	> 100 µM	> 100 µM	> 100 µM	> 100 µM
O=C1O[C@@H](CO)CN1c1ccc(-c2ccccc2OC(F)(F)F)c(F)c1	24.8 µM	33.2 µM	> 100 µM	21.9 µM	> 100 µM	59.1 µM	75.6 µM	9.3 µM	29.9 µM	> 100 µM	46.3 µM	42.6 µM
COC(=O)c1ccccc1-c1ccc(N2C[C@H](CO)OC2=O)cc1F	> 100 µM	> 100 µM	> 100 µM	39.7 µM	> 100 µM	> 100 µM	> 100 µM	64.6 µM	> 100 µM	> 100 µM	61.5 µM	96 µM
NC(CO)CC#Cc1ccc(N2C[C@H](CO)OC2=O)cc1F (stereo partly specified)	> 100 µM	> 100 µM	> 100 µM	> 100 µM	> 100 µM	> 100 µM	> 100 µM	> 100 µM	> 100 µM	> 100 µM	> 100 µM	> 100 µM
COc1ccc(-c2ccc(N3C[C@H](CO)OC3=O)cc2F)cc1	0.6 µM	0.7 µM	> 100 µM	0.3 µM	> 100 µM	> 100 µM	0.7 µM	0.2 µM	1.2 µM	> 100 µM	3.4 µM	23.3 µM
O=C(O)CNCC#Cc1ccc(N2C[C@H](CO)OC2=O)cc1F	> 100 µM	> 100 µM	> 100 µM	> 100 µM	> 100 µM	> 100 µM	> 100 µM	> 100 µM	> 100 µM	> 100 µM	> 100 µM	> 100 µM
O=C1O[C@@H](CO)CN1c1ccc(-c2cnoc2)c(F)c1	83.4 µM	83.4 µM	> 100 µM	30.6 µM	> 100 µM	> 100 µM	22.7 µM	23.6 µM	32.9 µM	> 100 µM	56.1 µM	> 100 µM
